Key:
CRTH2 = target: T1, CRTH2 (Homo sapiens, UniProt Q9Y5Y4); assay: Radioligand binding Scintillation Proximity Assay ([3H]PGD2, hCRTH2-CHO cell membranes); parameters: host or cells: CHO cells; conditions: 1.5 nM [3H]PGD2, hCRTH2-CHO cell membranes, SPA
T1 sequence (Q9Y5Y4 1-395): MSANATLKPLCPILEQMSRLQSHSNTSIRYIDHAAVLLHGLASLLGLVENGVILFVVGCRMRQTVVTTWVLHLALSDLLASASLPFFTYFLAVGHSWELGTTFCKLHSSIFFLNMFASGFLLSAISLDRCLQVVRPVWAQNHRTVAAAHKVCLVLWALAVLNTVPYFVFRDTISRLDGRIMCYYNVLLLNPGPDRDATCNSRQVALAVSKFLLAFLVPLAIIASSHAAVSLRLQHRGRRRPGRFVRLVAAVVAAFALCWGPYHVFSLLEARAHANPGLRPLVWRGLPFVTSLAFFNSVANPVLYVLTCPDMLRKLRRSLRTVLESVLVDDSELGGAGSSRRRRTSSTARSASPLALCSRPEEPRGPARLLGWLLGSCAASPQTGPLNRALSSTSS
In short: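 SPA competition binding at room temperature, 90 min with agitation: 1.5 nM [3H]PGD2, 10-50 μg/ml hCRTH2-CHO membrane protein, WGA SPA beads, HEPES pH 7.4 with 10 mM MnCl2, 1% DMSO. Non-specific binding defined with 10 μM PGD2; scintillation counting.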

- IC50 (CRTH2): 29 nM
- melting point: 80 to 95 °C
SMILES: COC1(C)c2ccc(C#Cc3cc(Cl)ccc3OCC(=O)O)cc2S(=O)(=O)C1(C)C (centres unmarked) [Example 162, {4-chloro-2-[(3-methoxy-2,2,3-trimethyl-1,1-dioxido-2,3-dihydro-1-benzothien-6-yl)ethynyl]phenoxy}acetic acid]

From patent US8273769B2, “Phenoxy acetic acid derivatives” (Merck Serono SA, priority 2009, dated 2012)
